Data taken from patent US20030114354A1, “Polynucleotide encoding a novel potassium channel with homology to the ether-a-go-go family, HEAG2” (priority 2001, published 2003).

Assays:
hEAG2 = molecular target: T1, hEAG2 (Homo sapiens, UniProt Q8NCM2); experiment: Whole cell electrophysiology of hEAG2 and GFP cotransfected CHO cells; assay type: cell-based
T1 construct: The complete open reading frame of HEAG2 cDNA was cloned into an Invitrogen native expression Gateway entry vector; expressed in transfected cells; host or cells: CHO cells, transient co-transfection with GFP DNA (Lipofectamine Plus)
T1 sequence (Q8NCM2 1-988): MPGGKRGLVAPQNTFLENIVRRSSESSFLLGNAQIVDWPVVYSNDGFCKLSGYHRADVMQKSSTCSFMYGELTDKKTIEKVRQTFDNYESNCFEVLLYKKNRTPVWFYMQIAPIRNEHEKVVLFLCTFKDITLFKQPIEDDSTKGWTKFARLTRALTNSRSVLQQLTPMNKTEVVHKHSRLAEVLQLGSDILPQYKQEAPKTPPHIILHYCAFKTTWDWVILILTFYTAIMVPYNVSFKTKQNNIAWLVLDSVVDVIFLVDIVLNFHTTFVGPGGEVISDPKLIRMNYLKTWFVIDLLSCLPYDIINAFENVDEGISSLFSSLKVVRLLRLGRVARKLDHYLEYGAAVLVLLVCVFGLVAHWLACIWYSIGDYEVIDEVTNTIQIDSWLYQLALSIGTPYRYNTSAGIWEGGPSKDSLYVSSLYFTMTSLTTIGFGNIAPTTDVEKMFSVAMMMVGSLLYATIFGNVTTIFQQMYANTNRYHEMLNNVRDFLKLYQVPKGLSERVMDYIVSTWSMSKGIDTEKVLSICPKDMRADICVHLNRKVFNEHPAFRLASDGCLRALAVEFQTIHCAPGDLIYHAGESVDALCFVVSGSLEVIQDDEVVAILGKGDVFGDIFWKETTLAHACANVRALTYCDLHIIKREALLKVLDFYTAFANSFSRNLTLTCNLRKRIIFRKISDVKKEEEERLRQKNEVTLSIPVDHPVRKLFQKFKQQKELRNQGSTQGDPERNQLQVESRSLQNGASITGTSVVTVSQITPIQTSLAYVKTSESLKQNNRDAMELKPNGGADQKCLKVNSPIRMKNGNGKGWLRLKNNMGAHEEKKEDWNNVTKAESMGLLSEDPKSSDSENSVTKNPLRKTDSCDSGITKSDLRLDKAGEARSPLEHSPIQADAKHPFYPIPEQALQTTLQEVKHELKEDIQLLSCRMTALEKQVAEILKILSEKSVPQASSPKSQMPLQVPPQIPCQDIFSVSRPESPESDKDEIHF
Procedure: CHO cells were plated in growth medium at 10% (1.2×10^5 cells/dish) and 20% (2.4×10^5 cells/dish) confluence in poly-lysine coated 35 mm dishes. After 24 hours, the growth medium was removed, and cells were rinsed with Optimem (Invitrogen # 31985-070), then refed 0.8 ml Optimem. Cells were transiently co-transfected with 0.5 ug hEAG2 DNA in the pDEST vector, and 0.5 ug of GFP DNA using Lipofectamine Plus (Invitrogen # 10964-013). Three hours post transfection, the transfection mix was removed, and cells were refed with 2 ml growth medium. Twenty four hours post transfection, cells were again refed 2 ml fresh growth medium. Cells were used in experiments 24-72 hrs post transfection. Control experiments were performed in CHO cells transiently transfected with 1 μg of GFP DNA. CHO growth medium is Iscove's medium (Invitrogen #12440)+10% FBS, 1× non-essential amino acids(Invitrogen #12383-014) and 1× HT Supplement (Invitrogen #11067-030). All chemicals were purchased from Sigma Chemicals, St. Louis Mo. The internal solution contained (in mM): KCl 130, MgCl2 1, CaCl2 1, HEPES 10, EGTA 10, and was titrated to a pH of 7.2. […] The bath solution contained (in mM) NaCl 140, KCl 4, MgCl2 1, CaCl2 1.8, HEPES 10, Glucose 10, and was titrated to a pH of 7.4. For some experiments the bath solution was modified by the addition of 1 or 5 mM BaCl2, by changing the concentration of MgCl2 to 0 or 10 mM or by reducing NaCl to 104 mM and increasing KCl to 40 mM. During data recording, cells were constantly superfused with bath solution delivered through a fused silica perfusion tip, internal diameter […]. Solution changes were accomplished through the use of a […]16 multichannel perfusion system from AutoMate Scientific, San Francisco Calif. Currents were recorded on an EPC-9 amplifier (HEKA Electronik, Lambrecht/Pfalz, Germany), controlled through the Pulse software package. Currents were sampled at 10 kHz and filtered at 3.3 kHz. Pipettes were constructed from thin walled borosilicate capillary tubing (Warner Instruments Corp., Hamden Conn.), and pulled to a resistance of 1.5-3 MΩ on a P-97 micropipette puller (Sutter Instrument Co., Novato Calif.). All experiments were conducted at 20° C. Following the establishment of a Gigaohm seal and whole cell access, cells were held at -80 mV. […] All stimulation protocols were applied at 0.1 Hz.

Eag proteins = conditions: intracellular Ca++; read-out: half-maximal inhibition concentration; cited from earlier work
[1] = picogram quantities, female recipients; cited from earlier work
Human lung fibroblasts = experiment: Human lung fibroblast proliferation assay (Alamar Blue); assay type: cell-based; conditions: 3 days in basal medium
Procedure: Human lung fibroblasts are obtained from Clonetics (San Diego, Calif.) and maintained in growth media from Clonetics. Dermal microvascular endothelial cells are obtained from Cell Applications (San Diego, Calif.). For proliferation assays, the human lung fibroblasts and dermal microvascular endothelial cells can be cultured at 5,000 cells/well in a 96-well plate for one day in growth medium. The cells are then incubated for one day in 0.1% BSA basal medium. After replacing the medium with fresh 0.1% BSA medium, the cells are incubated with the test proteins for 3 days. Alamar Blue (Alamar Biosciences, Sacramento, Calif.) is added to each well to a final concentration of 10%. The cells are incubated for 4 hr. Cell viability is measured by reading in a CytoFluor fluorescence reader. For the PGE2 assays, the human lung fibroblasts are cultured at 5,000 cells/well in a 96-well plate for one day. […]

[2] = tested on: nigral dopaminergic neurons; conditions: gel foam implants in the striatum; cited from earlier work

Compound: [Ba+2].[Cl-].[Cl-] [Ba^++, BaCl2]
- steady state current (hEAG2; addition of Ba^++ to the extracellular solution (bath + 1 or 5 mM BaCl2), depolarization to +40 mV for 1 sec, 20° C): apparent reduction

Compound: [Ca+2] [Ca++]
- IC50 (Eag proteins): ~100 nM

Compound: [K+] [K^+, KCl]
- tail reversal potential (hEAG2; increased extracellular K^+ (KCl 40 mM, NaCl 104 mM)): approximately −40 mV

Compound: [Mg+2] [Mg^++, MgCl2]
- activation rate of the current (hEAG2; Mg^++ free bath (MgCl2 0 mM)): much faster
- activation rate of the current (hEAG2; increased bath Mg^++ (MgCl2 10 mM)): dramatically slowed

Compound: C[C@@]12C=CC[C@H]1[C@@H]1CCC3=CC(=O)CC[C@]3(C)[C@H]1CC2 [androstadienone]
- nervousness, tension and other negative feelings [1]: significant reduction

Compound: FGF-2: Fibroblast growth factor 2 (basic FGF), comparator protein for the polypeptides of the invention
- stimulation of growth of human lung fibroblasts, concentration showing stimulation (Human lung fibroblasts): 10 to 2500 ng/mL
- protection of nigral dopaminergic neurons from toxicity associated with MPTP exposure [2]: near complete protection
